Experimental data taken from patent US11897875B2, “Deuterated Alpha5 subunit-selective negative allosteric modulators of gamma-aminobutyric acid type a receptors as fast acting treatment for depression and mood disorders” (UNIVERSITY OF MARYLAND, BALTIMORE, priority 2017, dated 2024).

Experiments:
[1] = system: rats subjected to chronic multimodal stress; assay: sucrose preference test in rats under chronic multimodal stress; format: in vivo, rat; conditions: for sucrose preference (sucrose solution consumed as percentage of total): single injection, NCGC-43 3 mg/kg or ketamine 20 mg/kg, 24 hours, 7 days, 14 days after injection, stress continued
Experimental: In the sucrose preference test, rats were given an overnight two bottle choice task (in which the sucrose solution consumption is shown as a percentage of the total solution consumed) before commencing stress (baseline), immediately after 14 days of chronic multimodal stress, and 24 hours, 7 days, and 14 days after an injection of NCGC-43 (3 mg/kg, gray), ketamine (20 mg/kg, orange), or vehicle (DMSO solution, blue), all while continuing with daily chronic multimodal stress. A control group received neither stress nor drug (yellow).

[2] = system: rats subjected to chronic multimodal stress; assay: social interaction test in rats after chronic multimodal stress; format: in vivo, rat; conditions: single injection, NCGC-43 3 mg/kg or ketamine 20 mg/kg; 24 hours after injection
Experimental: […] In the social interaction test, rats were given a choice between spending time in a chamber with a novel caged juvenile rat and a chamber with an empty cage before commencing stress (baseline), immediately after 14 days of chronic multimodal stress, and 24 hours after an injection of NCGC-43 (3 mg/kg, gray), ketamine (20 mg/kg, orange), or vehicle (DMSO solution, blue). Social interaction computed as percent time spent with the novel animal. A control group received neither stress nor drug (yellow).

[3] = system: rats subjected to chronic multimodal stress; assay: open field test; format: in vivo, rat; conditions: 3 mg/kg
Experimental: FIG. 4A is a schematic of the open field test. […] Behavioral measurements were made before commencing stress (baseline), immediately after 14 days of chronic multimodal stress, and 24 hours after an injection of NCGC-43 (3 mg/kg) or vehicle (DMSO solution).

[4] = system: naïve rats and rats subjected to 14 days of chronic multimodal stress; assay: forced swim test; format: in vivo, rat; conditions: for time the animals spent immobile / latency until the animals ceased to struggle and become immobile: NCGC-43 3 mg/kg or ketamine 20 mg/kg, 24 hours after injection; for time the animals spent immobile: vs stressed animals given vehicle (FIG. 6A); for latency until the animals ceased to struggle and become immobile: vs stressed animals given vehicle (FIG. 6B)
Text: NCGC-43 and ketamine both exert an antidepressant-like response in this test. […] See also FIG. 6C and FIG. 6D.

[5] = metabolic stability in rat hepatocytes in vitro; format: in vitro ADME; conditions: rat liver hepatocytes
Text: (§1) Table 1, below, presents data regarding the half-life of […] in rat and human liver hepatocytes, in vitro, showing an increase in half-life for the deuterated compounds. Stability improved more in human hepatocytes compared to rat hepatocytes, with variation between the hepatocyte studies. […] Longer half-life also allows less frequent dosing. […] Deuteration preferably is located at the site of metabolism, since installing deuterium atoms at the site of metabolism more readily increases the half-life of the compound.

rat liver hepatocytes = assay: metabolic stability in rat hepatocytes in vitro; format: in vitro ADME; conditions: 3 hours
Text: as §1

human liver hepatocytes = assay: metabolic stability in human hepatocytes in vitro; format: in vitro ADME
Text: as §1

[6] = metabolic stability in human hepatocytes in vitro; format: in vitro ADME; conditions: human liver hepatocytes; human hepatocytes in vitro
Text: as §1

[7] = as a nootropic; cited from earlier work
[8] = system: rats subjected to chronic multimodal stress; assay: elevated plus maze; format: in vivo, rat; conditions: NCGC-43 3 mg/kg or ketamine 20 mg/kg; 24 hours after injection
Experimental: In the elevated plus maze, rats were given a choice between spending time in one of two arms of an elevated cross-shaped maze (one arm closed and the other arm open), immediately after 14 days of chronic multimodal stress, and 24 hours after an injection of NCGC-43 (3 mg/kg) or ketamine (20 mg/kg). A control group was unstressed and received a vehicle injection (DMSO).

SMILES | antidepressant effects compared with ketamine ([1]; NCGC-43 3 mg/kg vs ketamine 20 mg/kg) | sucrose preference (sucrose solution consumed as percentage of total) [1] | social interaction (percent time spent with the novel animal) [2] | overall locomotor activity ([3]; 24 hours after injection (FIG. 4B)) | time spent in the corners and sides ([3]; 24 hours after injection (FIG. 4C)) | ratio of time spent in the center of the chamber to time spent in the corners/sides ([3]; 24 hours after injection (FIG. 4D)) | latency before the animals first entered the center of the chamber ([3]; 24 hours after injection (FIG. 4E)) | time course of effect (responses at 1 hour and 24 hours) ([4]; 3 mg/kg, 1 hour vs 24 hours after injection) | time the animals spent immobile [4] | latency until the animals ceased to struggle and become immobile [4] | latency to immobility, dose-response ([4]; intraperitoneal, increasing doses, 1 or 24 hours after injection (FIG. 7)) | half-life [5] | Percentage Remaining at 3 Hours (rat liver hepatocytes) | Half-life (hours) (human liver hepatocytes; human hepatocytes in vitro) | Percentage Remaining at 3 Hours (human liver hepatocytes; human hepatocytes in vitro) | metabolic stability compared with non-deuterated RG-1662 (human liver hepatocytes; rat and human hepatocytes in vitro, improved more in human) | half-life [6] | efficacy in phase II clinical trials [7] | safety in phase II clinical trials [7] | percent of time spent in the closed arm [8]
[2H]C([2H])([2H])c1onc(-c2ccc(F)cc2)c1COc1ccc(C(=O)N2CCS(=O)(=O)CC2)cn1 [NCGC-43, (1,1-dioxidothiomorpholino)(6-((3-(4-fluorophenyl)-5-(methyl-d3)isoxazol-4-yl)methoxy)pyridin-3-yl)methanone] | comparable to ketamine | restored sucrose preference in a rapid (within 24 hours) and persistent (up to 14 days) manner | restored their preference for interacting with a novel animal | neither chronic stress nor injection of NCGC-43 or vehicle had any significant effects | neither chronic stress nor injection of NCGC-43 or vehicle had any significant effects | neither chronic stress nor injection of NCGC-43 or vehicle had any significant effects | mildly decreased the latency | rapid and persistent effects similar to those described previously for ketamine | a decrease in the time the animals spent immobile | an increase in the latency | significant efficacy at 1 and 3 mg/kg | 38.4 min | 3.9% | Stable | 100% | more metabolically stable |  |  |  | 
Cc1onc(-c2ccc(F)cc2)c1COc1ccc(C(=O)N2CCS(=O)(=O)CC2)cn1 [RG-1662, (1,1-Dioxidothiomorpholino)(6-((3-(4-fluorophenyl)-5-methylisoxazol-4-yl)methoxy)pyridin-3-yl)methanone, reference compound] |  |  |  |  |  |  |  |  |  |  |  | 36 min | 3.3% |  | 83.7% |  | 720 min | not efficacious | safe | 
CNC1(c2ccccc2Cl)CCCCC1=O (stereo not drawn) [ketamine, reference compound] |  | restored sucrose preference in a rapid (within 24 hours) and persistent (up to 14 days) manner | restored their preference for interacting with a novel animal |  |  |  |  |  | a decrease in the time the animals spent immobile | an increase in the latency |  |  |  |  |  |  |  |  |  | increased the percent of time the rat spent in the closed arm
